Laboratory results reported in patent US12633374B2, “Method for determining efficacy of chemotherapy treatment for a subject” (RNA Diagnostics Inc., priority 2012, dated 2026).

How the values were obtained:
[1] = system: A2780 ovarian cancer cells; assay: RNA disruption in drug-treated A2780 cells (Agilent Bioanalyzer electropherogram/gel); assay type: cell-based, human; conditions: for RNA electropherogram banding pattern: 24 hours at 37° C.; for Low C Area/(28S+18S) vs docetaxel dose: method 400
Protocol: RNA was isolated from ovarian cancer cell line A2780 cells which had been treated with 10 μM docetaxel in 50% media or 20 μM epirubicin, each in 50% media. Cells were treated with the chemotherapeutic for 24 hours at 37° C. Isolated RNA was separated by microcapillary electrophoresis using the Agilent 2100 Bioanalyzer.
Cells were plated and treated with docetaxel concentrations ranging from 0.001-40 μM for 24 to 72 hours to assess the effect on cell number, RNA content, and integrity (measured using a Bioanalyzer 2100 from Agilent Technologies, Inc.).
RNA was isolated and electrophoretically separated on an Agilent Bioanalyzer. As shown in FIG. 9D bands appeared just below the 28S (e.g. intermediate) and 18S bands (e.g. low banding region) at 0.005 uM and peaked at 0.2 uM.
A time course experiment was conducted in A2780 cells. Cells were treated for up to 72 hours with docetaxel at 0.005 uM and 0.2 uM. RNA was isolated and run on an Agilent Bioanalyzer.
Plots of the combination of features Intermediate Area/(28S+18S) and Low C Area/(28S+18S) were generated using the method 400 although method 300 may also be used.

[2] = system: Colon adenocarcinoma cells SW480; assay: RNA disruption in SW480 cells; assay type: cell-based; conditions: 72 hr, FIG. 20C
Protocol: Colon adenocarcinoma cells SW480 were incubated with Epirubicin, a DNA synthesis inhibitor. RNA was isolated from the cells and analyzed using an Agilent Bioanalyzer. RNA Disruption is evident at 72 hr at […] (see FIG. 20C).

[3] = system: Jurkat T leukemia cell line; conditions: Fimognari et al 2009; cited from earlier work
tumour sample = assay: Maximal RDI score in tumour biopsies of patients on neo-adjuvant Zometa; assay type: in vivo, human; conditions: after the first cycle, FIG. 17C and 17D
Protocol: Biopsy samples were obtained from patients undergoing neo-adjuvant therapy with Zometa. RNA was isolated and analyzed using the Agilent Bioanalyzer. Electropherograms were analyzed using the methods 100 and 400 and the maximal RDI score was graphed for each tumour sample at each time-point.

[4] = system: Colon adenocarcinoma cells LS174T; assay: RNA disruption in LS174T cells; assay type: cell-based; conditions: 24 hr, FIG. 20A
Protocol: Colon adenocarcinoma cells LS174T were incubated with Sunitinib, a receptor tyrosine kinase inhibitor. RNA was isolated from the cells and analyzed using an Agilent Bioanalyzer.
RNA was isolated from the cells and analyzed using an Agilent Bioanalyzer.

[5] = system: A2780 ovarian cancer cells; assay: Cell counts of A2780 cells treated with docetaxel; conditions: up to 72 hours, FIG. 9A
Protocol: A2780 cells were treated for up to 72 hours with docetaxel at 0.005 uM and 0.2 uM. Cell counts were measured at each time-point.

[6] = system: docetaxel-resistant A2780DXL cells; assay: RNA disruption in docetaxel-resistant A2780 cells; assay type: cell-based, human
Protocol: A docetaxel A2780 resistant cell line was made as described in Li et al., Int. J. Mol. Med 2004 14(20): 257-264.
A time course experiment was conducted. Sensitive parental and docetaxel resistant A2780 cells were treated with docetaxel for 24 hours. RNA was isolated and run on an Agilent Bioanalyzer.

[7] = system: A2780 ovarian cancer cells; assay: Amount of RNA per cell in A2780 cells treated with docetaxel; assay type: cell-based, human
Protocol: A2780 cells treated for up to 72 hours with docetaxel at 0.005 uM and 0.2 uM, were analyzed for the amount of RNA per cell. RNA was isolated and electophoretically separated using an Agilent Bioanalyzer.

A2780 cells = assay: Recovery Assay after docetaxel treatment; assay type: cell-based, human; conditions: 0.2 uM docetaxel up to 72 hours, washed, replated in drug-free media, FIG. 9C
Protocol: A Recovery Assay was next carried out to determine if A2780 cells could recover from treatment with 0.2 uM docetaxel. A2780 cells were treated with 0.2 uM docetaxel for up to 72 hours and then washed and replated in drug-free media.

xenograft tumours = assay: RNA from docetaxel-treated xenograft tumours after storage in liquid nitrogen or saline (Agilent 2100 Bioanalyzer); assay type: in vivo; set-up: 18S Area / 28S Area / RNA Area: unit not given here
Protocol: RNA isolated from xenograft tumours stored in liquid nitrogen, RNALater™ solution or left in saline for 1h, 2h, 5h and 24h to induce autocatalytic degradation was analyzed by measuring an RNA Integrity Number (RIN) using Agilent 2100 Bioanalyzer. […] Circles above the gel lanes indicate that an RIN number could be calculated (FIG. 8A). Circles encapsulated by squares indicate samples for which an RIN number could not be calculated. Control samples were untreated xenograft tumours (1-7). Treated samples (8-12) were given docetaxel. Various measurements for the data shown in FIGS. 8B-8M follow in Tables 3.1 to 3.12.

[8] = system: A2780 ovarian cancer cells; assay: Effect of caspase inhibitor on RNA integrity changes in docetaxel-treated cells; assay type: cell-based, human; conditions: FIG. 9J
Protocol: The effect of a caspase inhibitor on RNA integrity changes was next assessed. Cells were treated with or without docetaxel at a concentration of 0.2 uM in the presence or absence of the caspase inhibitor Q-DEVD-OPH (Biovision Laboratories) at a concentration of 10 uM.

[9] = tumour left in saline 1h, sample 9
[10] = tumour left in saline 2h, sample 10
[11] = tumour left in saline 5h, sample 11
[12] = tumour left in saline 24h, sample 12
[13] = tumour stored in liquid nitrogen, sample 8

Compound: COc1cccc2c1C(=O)c1c(O)c3c(c(O)c1C2=O)C[C@@](O)(C(=O)CO)C[C@@H]3O[C@H]1C[C@H](N)[C@@H](O)[C@H](C)O1 [epirubicin]
- RNA electropherogram banding pattern ([1]; epirubicin 20 μM in 50% media, FIG. 3): intermediate bands between the 18S and 28S peaks
- concentration at which RNA Disruption is evident [2]: 0.5 mM

Compound: COc1cccc2c1C(=O)c1c(O)c3c(c(O)c1C2=O)C[C@@](O)(C(=O)CO)C[C@@H]3O[C@H]1C[C@H](N)[C@H](O)[C@H](C)O1 [doxorubicin]
- susceptibility of total RNA to chemical attack [3]: susceptible to chemical attack

Compound: O=P(O)(O)C(O)(Cn1ccnc1)P(=O)(O)O [Zometa]
- RDI values (tumour sample): increased in some patients

Compound: CCN(CC)CCNC(=O)c1c(C)[nH]c(/C=C2\C(=O)Nc3ccc(F)cc32)c1C [Sunitinib]
- concentration at which RNA Disruption is evident [4]: 54 mM

Compound: CC(=O)O[C@@]12CO[C@@H]1C[C@H](O)[C@@]1(C)C(=O)[C@H](O)C3=C(C)[C@@H](OC(=O)[C@H](O)[C@@H](NC(=O)OC(C)(C)C)c4ccccc4)C[C@@](O)([C@@H](OC(=O)c4ccccc4)[C@H]21)C3(C)C [docetaxel]
- docetaxel concentrations at which cell numbers remained constant [5]: greater than or equal to 0.005 uM
- Low C Area/(28S+18S) vs docetaxel dose ([1]; 8 hr, 24 hr, or 48 hr): Little change
- docetaxel concentration at which banding below 28S and 18S peaked ([1]; 24 hours, 0 to 40 uM, FIG. 9D): 0.2 µM
- docetaxel concentration at which bands appeared just below the 28S and 18S bands ([1]; 24 hours, 0 to 40 uM, FIG. 9D): 0.005 µM
- docetaxel concentration at which additional bands are visible on gel ([1]; FIG. 9D, 24 hours): 0.05 µM
- docetaxel concentrations giving dose and time-dependent reductions in cell number and cell RIN values while RDI increased ([1]; RDI = Intermediate Area/(28S+18S)): ≥ 0.1 µM
- Low C Area/(28S+18S) vs docetaxel dose ([1]; after 72 hr): dramatic increase
- Intermediate/(28S+18S) ([1]; docetaxel 0.005 uM and 0.2 uM, 24 to 72 hours, FIG. 9F): increases dramatically with time
- Low banding area/(28S+18S) ([1]; docetaxel 0.005 uM and 0.2 uM, 24 to 72 hours, FIG. 9G): also increases with time
- RNA banding in time course ([1]; docetaxel 0.005 uM and 0.2 uM, up to 72 hours, FIG. 9H): banding appears below the 28S and 18S bands at all time-points
- RNA electropherogram banding pattern ([1]; docetaxel 10 μM in 50% media, FIG. 2): shows an intermediate peak and a peak adjacent to the 18S peak
- RIN ([1]; docetaxel concentrations ≥0.005 uM): did not change significantly
- docetaxel concentration at which banding appears below the 28S and 18S bands ([1]; sensitive parental cells, 24 hours, FIG. 9I): 0.005 µM
- RNA disruption and cellular RNA content ([6]; A2780DXL cells treated with docetaxel): did not result in RNA disruption or changes in cellular RNA content
- RNA banding below the 28S and 18S bands ([6]; resistant cells, docetaxel 24 hours, FIG. 9I): no banding is evident
- amount of RNA per cell ([7]; docetaxel 0.005 uM and 0.2 uM, up to 72 hours, FIG. 9B): increase in a time-dependent and dose-dependent manner
- RNA content per cell ([7]; low docetaxel concentrations): increased per cell
- resumption of cell proliferation after drug withdrawal (A2780 cells): No resumption of cell proliferation
- 18S % of total Area (xenograft tumours; [9]): 8.3%
- 18S Area (xenograft tumours; [9]): 13.2
- 28S % of total Area (xenograft tumours; [9]): 6.4%
- 28S Area (xenograft tumours; [9]): 10.2
- RNA Area (xenograft tumours; [9]): 158.5
- RNA Concentration (xenograft tumours; [9]): 85 ng/µL
- rRNA Ratio [28 s/18 s] (xenograft tumours; [9]): 0.8
- 18S % of total Area (xenograft tumours; [10]): 9.8%
- 18S Area (xenograft tumours; [10]): 27.3
- 28S % of total Area (xenograft tumours; [10]): 6.6%
- 28S Area (xenograft tumours; [10]): 18.5
- RNA Area (xenograft tumours; [10]): 278.5
- RNA Concentration (xenograft tumours; [10]): 150 ng/µL
- RNA Integrity Number (RIN) (xenograft tumours; [10]): 6.5 (B.02.06)
- RNA Ratio [28 s/18 s] (xenograft tumours; [10]): 0.7
- 18S % of total Area (xenograft tumours; [11]): 6.5%
- 18S Area (xenograft tumours; [11]): 15.4
- 28S % of total Area (xenograft tumours; [11]): 6.6%
- 28S Area (xenograft tumours; [11]): 15.4
- RNA Area (xenograft tumours; [11]): 235.4
- RNA Concentration (xenograft tumours; [11]): 127 ng/µL
- rRNA Ratio [28 s/18 s] (xenograft tumours; [11]): 1.0
- 18S % of total Area (xenograft tumours; [12]): 1.1%
- 18S Area (xenograft tumours; [12]): 1.9
- RNA Area (xenograft tumours; [12]): 168.9
- RNA Concentration (xenograft tumours; [12]): 91 ng/µL
- RNA Integrity Number (RIN) (xenograft tumours; [12]): 2.7 (B.02.06)
- rRNA Ratio [28 s/18 s] (xenograft tumours; [12]): 0.0
- 18S % of total Area (xenograft tumours; [13]): 18.4%
- 18S Area (xenograft tumours; [13]): 46.1
- 28S % of total Area (xenograft tumours; [13]): 21.8%
- 28S Area (xenograft tumours; [13]): 54.6
- RNA Area (xenograft tumours; [13]): 250.5
- RNA Concentration (xenograft tumours; [13]): 135 ng/µL
- RNA Integrity Number (RIN) (xenograft tumours; [13]): 9.1 (B.02.06)
- rRNA Ratio [28 s/18 s] (xenograft tumours; [13]): 1.2

Compound: Q-DEVD-OPH
- bands below the 28S and 18S bands ([8]; 0.2 uM docetaxel with or without 10 uM caspase inhibitor): detectable in the presence and absence
- effect on loss of 28S and 18S bands ([8]; 10 uM inhibitor with 0.2 uM docetaxel, 72 hr): reduces the loss of 28S and 18S bands
